Like-named read-outs stand apart in the source and are kept apart here.
Columns and labels:
[1] = tested on: TNF-α production in LPS-induced BV-2 cells; assay: TNF-α production in LPS-induced BV-2 cells (ELISA); format: cell-based, murine; details: for Effect on TNF-α levels: up to 10 µM; for IC50: Mus musculus, BV-2, read-out: IC50 against TNF-α
Description: (§1) BV-2 cells were seeded at a density of 5 × 10^5 cells/mL in 96-well plates. […] Finally, 1 µg/mL LPS was added to the cell culture medium for 24 h to induce inflammation.

in vivo = details: male, C57BL/6J, mouse; for AUC(0-t): AUClast
Description: Plasma samples were obtained via centrifugation at 15,000 rpm for 3 min and stored at − 20℃ until LC-MS/MS analysis.
The brain-to-plasma ratio (Kp) and unbound Kp (Kp,uu) were calculated as follows: [drawing 5] [drawing 6]
Pharmacokinetic parameters were calculated via non-compartmental analysis using Phoenix WinNonlin, ver. 8.3 (Pharsight, Mountain View, CA, USA).

[2] = Bidirectional MDR1-MDCK monolayer permeability; format: in vitro ADME, canine; details: dog, MDCK-MDR1; for Papp at 3 µM: both directions, read-out: Apparent permeability coefficients; for Papp A→B at 3 µM / Papp A→B at 10 µM / Papp A→B at 30 µM: read-out: Papp Apical → Basolateral; for Papp B→A at 3 µM / Papp B→A at 10 µM / Papp B→A at 30 µM: read-out: Papp Basolateral → Apical; for Papp A→B: read-out: Papp in the apical-to-basolateral direction
Description: (§2) MDR1-MDCK cells were seeded at a density of 2 × 10^5 cells/well on the apical side of 24-transwell plates with a pore size of 0.4 μm (Corning Costar, Cambridge, MA, USA). Each basolateral chamber was filled with 0.6 mL medium, and each apical side with 0.2 mL medium containing cells. The plates seeded with cells were incubated for 3 days. The culture medium was replaced on both the apical and basolateral sides 2 days after seeding. Before the experiment, the transepithelial electrical resistance was measured using an epithelial voltohmmeter (Millicell ERS-2; Millipore), where 300 ohms or greater was considered to indicate the formation of a cell monolayer with tight junctions. The cells were rinsed twice with pre-warmed Hank’s balanced salt solution (HBSS) containing 10 mM of HEPES and were incubated in a CO2 incubator for 30 min. […] After equilibration, the solutions containing the test or reference compounds were added to either the apical side (0.2 mL) or basolateral side (0.6 mL) of the wells, and the plates were incubated in a shaking incubator (37℃, 200 rpm). Samples were collected every 30 min. To test for apical-to-basolateral flow, 110 µL sample was removed from each basolateral chamber; to test for basolateral-to-apical flow, 110 µL sample was taken from each apical chamber; then, each well was replenished with 110 µL fresh HBSS. To each sample, 50 µL internal standard (5 ng/mL disopyramide) in water was added. Samples were prepared for analysis using solid-phase extraction, and the sample concentrations were analyzed via LC-MS/MS. The permeability of the tested compounds was evaluated by calculating the apparent permeability coefficient (Papp, cm/s) and the efflux ratio (ER). The Papp was calculated as follows: [drawing 1] where dQ/dt is the initial permeability rate of the compound across the cells (ng/s), A is the surface area of the cell monolayer (cm^2), and C0 is the initial concentration of the donor side (ng/mL). From the apical-to-basolateral and basolateral-to-apical Papp values, the ER was calculated as follows: [drawing 2]

MDR1-MDCK monolayer = assay: Bidirectional MDR1-MDCK monolayer permeability; format: in vitro ADME, canine; details: for P-gp substrate: ER > 2 indicates drug efflux
Description: as §2

[3] = In vitro protein-binding assay using equilibrium dialysis, plasma; format: in vitro ADME, mouse
Description: (§3) A rapid equilibrium dialysis device with inserts (cat no. #90,112, Thermo Fisher) was used for the protein-binding assay. […] The samples were incubated for 4 h in a shaking incubator (37℃, 300 rpm). After incubation, 50 µL buffer from the white chamber was added to 50 µL fresh mouse plasma or brain homogenate, and 50 µL dosing solution from the red chamber was added to 50 µL fresh buffer to adjust for matrix effects. To each sample, 200 µL ice-cold acetonitrile with internal standard was added. The samples were centrifuged at 4,000 rpm for 20 min and the supernatants were collected for LC-MS/MS analysis. The unbound fraction of drug (Fu) in plasma and brain tissue was calculated as follows based on previous studies: [drawing 3] [drawing 4]
(§4) where Cprotein-free compartment and Cprotein-containing compartment, D, and dh are the concentrations of drug in the buffer chamber and drug solution chamber, dilution factor, and diluted brain homogenate, respectively.
(§5) The values were calculated using the measured diluted free fractions and the respective dilution factor.

[4] = tested on: NF-κB signaling pathway in LPS-exposed BV-2 cells; assay: Western blotting of p-NF-κB and NF-κB in LPS-exposed BV-2 cells; format: cell-based, murine; details: 1 and 10 µM, LPS 1 µg/mL 4 h
Description: Then the cells were incubated with or without LPS (1 µg/mL) for 4 h. Cells were harvested using trypsin and washed twice in cold Dulbecco’s phosphate-buffered saline and lysed with RIPA lysis buffer (Elpis, Daejeon, Korea) containing protease and phosphatase inhibitor mini tablets (Thermo Fisher, Waltham, MA, USA). Protein lysate concentrations were determined using the Pierce BCA Protein Assay kit (Thermo Fisher). Protein samples (5 µg) were separated via 5–20% sodium dodecyl sulfate polyacrylamide gel electrophoresis and then transferred to polyvinylidene fluoride membranes (ATTO, Tokyo, Japan). After transfer, membranes were blocked using Tris-buffered saline containing 0.5% Tween 20 and 5% bovine serum albumin at room temperature for 1 h. The membranes were incubated overnight at 4℃ with primary antibodies at a dilution ratio of 1:1000. […] Subsequently, blots were detected using horseradish peroxidase-conjugated secondary antibodies (1:10,000 dilution) and the ECL substrate (Millipore Corporation, Billerica, MA, USA) at room temperature for 1 h. Protein expression levels were measured using WSE-6100 LuminoGraph (ATTO). The bands were analyzed using the ImageJ software (NIH, Bethesda, MD, USA).

[5] = tested on: NO production in LPS-induced BV-2 cells; assay: NO production in LPS-induced BV-2 cells (Griess test); format: cell-based, murine; details: 1 h pretreatment, LPS 1 µg/mL 24 h; for Effect on NO levels: up to 10 µM
Description: as §1

[6] = In vitro protein-binding assay using equilibrium dialysis, brain homogenate; format: in vitro ADME, mouse
Description: as §3, §4, §5

[7] = 1 h pretreatment, LPS 1 µg/mL 24 h

SMILES | Effect on TNF-α levels [1, 7] | bioavailability (in vivo) [%] | AUC(0-inf) (in vivo; iv, 1 mg/kg) [ng·h/mL] | clearance (in vivo; iv, 1 mg/kg) [mL/min/kg] | half-life (in vivo; iv, 1 mg/kg) [h] | AUC(0-t) (in vivo; iv, 1 mg/kg) [ng·h/mL] | AUC(0-inf) (in vivo; po, 10 mg/kg) [ng·h/mL] | Cmax (in vivo; po, 10 mg/kg) [ng/mL] | Tmax (in vivo; po, 10 mg/kg) [h] | half-life (in vivo; po, 10 mg/kg) [h] | AUC(0-t) (in vivo; po, 10 mg/kg) [ng·h/mL] | Papp at 3 µM ([2]; 3 µM) [×10⁻⁶ cm/s] | Papp A→B at 3 µM ([2]; 3 µM) [×10⁻⁶ cm/s] | Papp B→A at 3 µM ([2]; 3 µM) [×10⁻⁶ cm/s] | Papp A→B at 10 µM ([2]; 10 µM) [×10⁻⁶ cm/s] | Papp B→A at 10 µM ([2]; 10 µM) [×10⁻⁶ cm/s] | Papp A→B at 30 µM ([2]; 30 µM) [×10⁻⁶ cm/s] | Papp B→A at 30 µM ([2]; 30 µM) [×10⁻⁶ cm/s] | Papp A→B ([2]; over 3, 10, and 30 µM) [×10⁻⁶ cm/s] | Permeability class according to FDA guidelines (MDR1-MDCK monolayer) | also measured
O=C(O)Cc1ccc(Cc2cc(-c3cccc(Cl)c3)nc(C(F)(F)F)c2)cc1 [zatolmilast] | did not have this effect | 3.7 | 86900 ± 10900 | 0.167 | 6.35 ± 0.62 | 81900 | 62000 ± 31800 | 2530 ± 860 | 2 ± 1.73 | 20.4 ± 6.77 | 30300 ± 9640 | 3.72 to 7.18 | 3.72 ± 0.33 | 7.18 ± 1.53 | 9.59 ± 0.84 | 18 ± 1.37 | 70.3 ± 9.58 | 126 ± 8.39 | > 3.7 | moderately high | Vd (in vivo; iv, 1 mg/kg): 0.07 ± 0.01 L/kg; efflux ratio at 3 µM ([2]; 3 µM, read-out: ER): 1.92; efflux ratio at 10 µM ([2]; 10 µM, read-out: ER): 1.89; efflux ratio at 30 µM ([2]; 30 µM, read-out: ER): 1.81; efflux ratio ([2]; over 3, 10, and 30 µM, read-out: Efflux ratios (ERs)): < 1.92; P-gp substrate (MDR1-MDCK monolayer): not P-gp substrates; Efflux ratios (ERs) (MDR1-MDCK monolayer; over 3, 10, and 30 µM): < 2.0; fraction unbound at 4 h, 5 µM ([3]; pooled mouse plasma, 5 µM, mouse plasma, 4 h dialysis, read-out: Fu, Plasma): 0.0026 ± 0.0001; Effect on LPS-induced increase in p-NF-κB expression [4]: did not; Effect on NO levels [5]: did not have this effect; fraction unbound at 4 h, 5 µM ([6]; mouse blank brain homogenate, 5 µM, mouse brain homogenate, 4 h dialysis, read-out: Fu, Brain): 0.0014 ± 0.0002
O=C(Nc1c(Cl)cncc1Cl)c1ccc(OC(F)F)c(OCC2CC2)c1 [roflumilast] | dose-dependent decrease | 2.3 | 5070 ± 1100 | 3.33 | 3.74 ± 0.71 | 4890 ± 940 | 1290 ± 540 | 150 ± 70 | 2.33 ± 1.53 | 7.13 ± 2.86 | 1130 ± 540 | > 23 | 25.1 ± 1.28 | 23.9 ± 3.61 | 44.5 ± 2.53 | 40.8 ± 6.48 | 113 ± 5.7 | 72.2 ± 6.32 | > 25 | high | IC50 [1, 7]: 12.2 nM; IC50 ([1]; converted from nM): 4.9 ng/mL; P-gp substrate (MDR1-MDCK monolayer): not P-gp substrates; fraction unbound at 4 h, 5 µM ([3]; mouse, plasma): 0.0126 ± 0.0058; Effect on LPS-induced increase in p-NF-κB expression [4]: prevented the LPS-induced increase in p-NF-κB expression in a concentration-dependent manner; Effect on NO levels [5]: dose-dependent decrease; IC50 ([5]; Mus musculus, BV-2, read-out: IC50 against NO): 312 nM; fraction unbound at 4 h, 5 µM ([6]; mouse, brain homogenate): 0.0037 ± 0.002

— article PMC10391911, “Differential effects of two phosphodiesterase 4 inhibitors against lipopolysaccharide-induced neuroinflammation in mice” (BMC Neuroscience, 2023)
